One assay concerns TNFα. Put plainly: Mouse TNFα production model by LPS stimulation. In kind it is in vivo. The note with it: mouse C57BL/6, oral, dose of 100 mg/kg, LPS 60 mg/kg i.p. The method, then:
5-1: Mouse TNFα Production Model by LPS Stimulation
The present compound suspended in a medium, was orally applied to a mouse (male, C57BL/6), and after 0.5 hour, lipipolysaccharide (LPS, 055:B5, Sigma) was peritoneally administered to the mouse at a dose of 60 mg/kg. To the control groups was orally applied only the medium. Sixty minutes after LPS treatment, heparin-added blood collection was conducted from the abdominal vena cava under ether anesthesia, and centrifuged (12,000 r.p.m.) at 4° C. for 3 minutes, to give the plasma. The thus obtained plasma sample was stored at −80° C. before use. TNFα in the plasma was quantified using an ELISA kit (R&D systems).

The target in a further assay is T1, human CCR4 (Homo sapiens, UniProt P51679).
T1 construct: expressed in transfected cells; host or cells: CHO-dhfr(-)
T1 sequence (P51679 1-360): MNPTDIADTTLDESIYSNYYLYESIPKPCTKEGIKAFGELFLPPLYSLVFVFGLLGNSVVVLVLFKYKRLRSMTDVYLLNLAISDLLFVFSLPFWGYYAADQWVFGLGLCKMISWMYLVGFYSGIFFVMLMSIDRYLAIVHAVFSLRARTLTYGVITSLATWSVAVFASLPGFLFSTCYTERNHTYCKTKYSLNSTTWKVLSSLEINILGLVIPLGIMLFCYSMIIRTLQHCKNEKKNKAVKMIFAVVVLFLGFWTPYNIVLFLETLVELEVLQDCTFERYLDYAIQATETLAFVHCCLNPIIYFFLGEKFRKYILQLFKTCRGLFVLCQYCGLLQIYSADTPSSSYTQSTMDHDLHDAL
Put plainly: Inhibition of MDC-induced transient Ca ion increase in CCR4/CHO cells. The assay is classed as cell-based. The note with it: human CCR4 stably overexpressing CHO cell; recombinant human MDC 10 nM; read-out: IC50 value, inhibition of Ca2+ transient increase by MDC. The procedure: 1-1: Isolation of Human CCR4 Gene
Human bone marrow cell cDNA was prepared using Marathon cDNA amplification kit (manufactured by Clontech). PCR primers hCCR4XbaI-F1 (SEQ ID NO:1) and hCCR4XbaI-R1 (SEQ ID NO:2) were designed based on the sequence of GenBankX85740.
Using the human bone marrow cell cDNA as the template and using Ex Taq (manufactured by Takara), a PCR reaction (2 minutes at 95° C.→[30 seconds at 95° C., 45 seconds at 60° C., 1 minute at 72° C.]×35 times) was carried out. The thus amplified PCR product was subjected to 1% agarose gel electrophoresis, purified using QIAquick Gel Extraction Kit (manufactured by QUIAGEN) and then digested with a restriction enzyme Xbal. […]
The thus established human CCR4 stably overexpressing CHO cell (CCR4/CHO cell) was suspended in Ham's F-12 medium and FBS (10%) and dispensed into a 96-well plate at 3.0×10^4 cells/well. […] Transient increase in the intracellular Ca^2+ concentration induced by the human MDC was measured using a Ca^2+ detector for 96-well (manufactured by Hamamatsu Photonics), and inhibition ratio (%) of the test compound was calculated by the following equation: Inhibition ratio=[(Ec−Ea)/Ec]×100 • Ec: measured value of Ca^2+ transient increase by MDC; and • Ea: measured value of Ca^2+ transient increase by MDC when a test compound was added […]

Assay [1] has as its system auricle swelling. Put plainly: Mouse dermatitis model to which hapten is continuously applied (TNCB). In kind it is in vivo. The note with it: mouse Balb/c, repeated TNCB, applied to ear at a concentration of 5%. The method, then: 4-2: Mouse Dermatitis Model to which Hapten is Applied
To the auricle (both sides of the right ear) of the mouse (male, Balb/c), 1% (w/v) TNCB solution (acetone:olive oil=4:1) (20 μL) was applied to conduct first sensitization. Seven days after sensitization, 1% (w/v) TNCB (acetone:olive oil=4:1) (20 μL) was applied to the mouse auricle, to conduct induction (Day 0). Furthermore, on Days 2, 4, 6, 8, 10, 12, 14 and 16, the same procedure as on Day 0 was repeated. The compound of the present invention was dissolved in a medium, applied to both sides of the right ear (20 μL) 2 hours before applying TNCB. To the control groups, was applied only the medium. Right after the administration of the compound and 24 hours after TNCB application, the thickness of the mouse auricle was measured with Dialthickness gauge (manufactured by Ozaki Seisakusho), which was used as indicator for efficacy in mouse dermatitis model to which hapten was continuously applied.

The test system of assay [2] is leukocyte infiltration into the lung. Put plainly: Mouse OVA-induced asthma model. In kind it is in vivo. The note with it: mouse C57BL/6, oral, dose of 30 mg/kg. The procedure: 3-1: Mouse OVA-Induced Asthma Model Ovalbumin (OVA, 0.2 mg/mL) and Alum (8 mg/mL) prepared in physiological saline were intraperitoneally administered (500 μL) to the mouse (male, C57BL/6) on Day 1 (test starting day) and Day 8 (1 week thereafter), to sensitize the mouse. On Days 15 to 21, the mouse was taken to an inhalation chamber (W: 240 mm×L: 240 mm×H: 120 mm), and a 2% OVA solution was sprayed with an ultrasonic wave type nebulizer (NE-U12, manufactured by Omron) for 20 minutes, to thus conduct induction. The compound of the present invention suspended in a medium, was administered orally at 30 minutes before OVA sensitization on Day 8 and at 30 minutes before OVA induction on Days 15 to 21. To the control group was administered only the medium. Three hours after OVA inhalation on Day 21, the mouse was exsanguinated, the catheter tube was inserted into the trachea, and the lung was washed with heparin-containing physiological saline (10 U/ml), to give a bronchoalveolar lavage fluid (BALF). Leukocyte number in BALF was counted using hemocyte counter (SF-3000, manufactured by Sysmex).

Assay [3] concerns auricle swelling. Put plainly: Mouse DTH model (TNCB). In kind it is in vivo. Particulars: mouse Balb/c, applied to ear at a concentration of 5%, 24 hours after TNCB. The procedure:
The mouse (male, Balb/c) was shaved on the abdomen with hair clippers, and to the abdomen was applied ethanol solution (100 μL) of 7% (w/v) 2,4,6-trinitrochlrobenzene (TNCB), to sensitize the mouse. Seven days after sensitization, a 1% (w/v) TNCB solution in olive oil (20 μL) was applied to the auricle of the mouse (both sides of the right ear), to conduct induction. The present compound dissolved in a medium, was applied to both sides of the right ear (20 μL) 2 hours before applying TNCB. To the control groups, was applied only the medium. Right after the administration of the compound and 24 hours after TNCB application, the thickness of the mouse auricle was measured with Dialthickness gauge (manufactured by Ozaki Seisakusho), which was used as indicator for efficacy in mouse DTH model.

The test system of another assay is CCRF-CEM cell. Put plainly: Inhibition of MDC-induced T cell strain (CCRF-CEM cell) migration. The assay is classed as cell-based. Particulars: 4 hours. The procedure: Biological Example 2: Activity on cell migration stimulated by MDC 2-1: Inhibition tests on MDC-induced T cell strain (CCRF-CEM cell) migration A medium (0.3 mL) containing or free of MDC (20 nM, manufactured by PeproTech) was added to the lower chamber of 24-transwell plate, and further a medium (0.3 mL) containing a test compound solution of 2-fold concentration (containing 0.02% dimethylsulfoxide (DMSO)) or a medium (0.3 mL) containing DMSO only was added thereto. To the upper chamber, CCRF-CEM cell suspension prepared in 1×10^6 cells/50 μl and the test compound solution of 2-fold concentration (0.05 m]L) were added. The test was initiated by superimpose the upper chamber on the lower chamber. The chambers were incubated in a carbon gas incubator (5% CO2, 95% humidity) kept at 37° C. for 4 hours, and the cells remaining in the upper chamber were sucked up and removed. Then, 0.1 ml of a buffer (phosphate-buffered saline (PBS) containing ethylenediamine tetra-acetate sodium (EDTA) (20 μM) was added thereto, and subjected- to reaction at 4° C. for 30 minutes. The transwell plate was centrifuged (1000 r.p.m.) for 5 minutes, and the incubation liquid (600 μL) in the lower chamber was collected, and the cell number was counted using Flow Cytometer (manufactured by Becton-Dickinson). […]

The structures appear in SMILES notation.

In general, IC50 refers to the point on the concentration scale where inhibition reaches its midpoint. Turning to `Cc1ccc(S(=O)(=O)Nc2ncc(Br)nc2OCc2cccnc2)cc1` [Example 1(1), 6-bromo-2-((pyridin-3-yl)methyloxy)-3-(4-methylphenylsulfonylamino)pyrazine], the “TNFα production by LPS stimulation (plasma TNFα)” value in the assay with TNFα is recorded as “suppressed TNFα production by LPS stimulation”. Further, the IC50 on human CCR4 stood at 130 nM.
`COc1ccc(COc2nc(Br)cnc2NS(=O)(=O)c2ccc(C)cc2)cc1OC` [Example 1(2), 6-bromo-2-((3,4-dimethoxyphenyl)methyloxy)-3-(4-methylphenylsulfonylamino)pyrazine]: the IC50 at human CCR4 came out at 16 nM.
On to `COc1ccc(COc2nc(Br)cnc2NS(=O)(=O)c2ccc(C)cc2)cc1OCCN(C)C` [Example 1(3), 6-bromo-2-((3-(2-dimethylaminoethyloxy)-4-methoxyphenyl)methyloxy)-3-(4-methylphenylsulfonylamino)pyrazine], for which the auricle swelling entry with auricle swelling [1] is reported as “suppressed the auricle swelling”. For the same compound, the “leukocyte infiltration into the lung (leukocyte number in BALF)” value in assay [2] is given as “suppressed leukocyte infiltration into the lung”.
`COc1ccc(COc2nc(C)cnc2NS(=O)(=O)c2ccc(C)cc2)cc1OCCN(C)C` [Example 6(1), 6-methyl-2-((3-(2-dimethylaminoethyloxy)-4-methoxyphenyl)methyloky)-3-(4-methylphenylsulfonylamino)pyrazine]: the auricle swelling result in the assay with auricle swelling [3] was “suppressed the auricle swelling”. In the assay with CCRF-CEM cell, inhibition was half-maximal at 10 nM (IC50).

For the origin of these results see patent publication US20060004010A1, “Ccr4 antagonist and medical use thereof” (priority 2002, published 2006).
